Experimental data reported in patent US8895502B2, “β2-glycoprotein I peptide inhibitors” (Kansas State University Research Foundation, priority 2010, dated 2014).
Entries after “also recorded” stand apart in the source; their conditions may differ. Ends that are not written are not given here.

Experiments:
C57Bl/6 mice = test: Hemorrhage-induced intestinal damage and inflammation; type: in vivo, mouse; settings: 40 uM peptide after blood loss, 2 hours post-hemorrhage
Description: After a 1-week acclimatization period, mice were anesthetized using […]. Mice undergoing hemorrhage were subjected to retro-orbital removal of 30% of the calculated blood volume (approximately 0.5 mL) over a 90-second period (Fleming, S. D. et al., J. Surg. Res. 150:196-203 (2008); Hylton, D. J. et al., Shock 34:467-474 (2010); Hylton, D. J. et al., Shock 35: 134-140 (2011)). Volume of blood to be removed was based on animal weight and ranged from […] (body weight in grams×0.025). The determined blood volume was measured in water and marked on both the collection tubes and the capillary tubing used for retro-orbital punctures. This ensured that the correct amount would be withdrawn. A single retro-orbital puncture was sufficient for blood collection. The 2 hour mortality rate was less than 1%. Sham mice were subjected to similar procedures with no blood removal. Mice were randomly assigned to receive 40 uM peptide (80 ng/mouse) in a volume of 80-150 μL, or an equal volume of normal saline. To prevent spontaneous complement activation, all studies were performed in the absence of heparin. At 2 hours post-hemorrhage, mice were euthanized and tissues collected for analysis. Intestinal tissues were formalin fixed for analysis of injury and frozen sections were obtained for immunohistochemistry. […]

CD31 = test: Spontaneous breast cancer model, CD31 RNA expression; type: in vivo, mouse; settings: mammary tumors, compared to saline treated animals
Description: mRNA was isolated from the tumor samples that were homogenized in Trizol. The concentration of mRNA was evaluated by nanodrop and the purity by bioanalyzer. cDNA was then synthesized using random primers with the Quanta cDNA synthesis kit. RT-PCR was then performed on a 1:100 dilution of cDNA for 18s rRNA. After 3 min denaturing at 95° C., the real-time PCR reaction consisted of 50 cycles (of 10 sec at 95° C., 20 sec at 58° C., and 10 sec at 72° C.), followed by a melt curve increasing at intervals of 0.5° C. from 60° C. to 95° C. RT-PCR was also performed on cDNA samples for CD31 and VEGF which are endothelial markers of angiogenesis. After subtracting 18s Ct values, peptide treated dCt values were normalized to saline treated samples and fold change calculated as ddCt. Primers were obtained from Integrated DNA Technology (Coraville, Iowa) and sequences are in the table below.

H-IHFYSKNKEKKSSYTVEAHSRDGTI-OH [peptide 296Cys-Ser]
hemorrhage-induced inflammation (PGE2 and IL-6 production) (C57Bl/6 mice): significantly lower; also recorded: inhibit
hemorrhage-induced intestinal damage (C57Bl/6 mice): significantly lower; also recorded: inhibit
RNA expression of CD31 (CD31): significantly decreased
